The values that follow come from patent US10858388B2, “Selective progesterone receptor modulator (SPRM) regimen” (BAYER PHARMA AKTIENGESELLSCHAFT, priority 2015, dated 2020).

The assay concerns uterine fibroids. The experiment in a line: Study 15788: change in volume of largest fibroid by MRI and TVU (Example 8). It counts as in vivo, human. On the procedure:
A randomized, parallel-group, double-blind, placebo-controlled, multi-center study to assess efficacy of different doses of Compound 1 where secondary efficacy variable is the change in volume of the largest fibroid in subjects wherein treatment is of 3 months [1×12 weeks (84 days)]. Doses: 0.5 mg, 1 mg, 2 mg, or 4 mg once daily Route of administration: Oral Duration of treatment: 1×12 weeks (84 days) Women, 18 to 50 years old, with uterine fibroids documented by transvaginal or abdominal ultrasound at screening with at least 1 uterine fibroid with largest diameter 3 cm and heavy menstrual bleeding (HMB) 80 ml were be eligible for enrolment in the study. The secondary efficacy variable is the percent change in volume of the largest fibroid compared to baseline (measured by MRI and TVU) • MRI: Magnetic Resonance Imaging • TVU: Transvaginal/abdominal ultrasound Ultrasound examination was performed consistent with the schedule of procedures (Table 1). For each subject, the most appropriate ultrasound method (transvaginal or abdominal) was used depending on fibroid location and this method was consistently used throughout the study. The same ultrasound machine (per site) should be used throughout the study. The 3 largest fibroids were identified during the screening period. […]

Consider `C[C@]12C[C@H](c3ccc(S(C)(=O)=O)cc3)C3=C4CCC(=O)C=C4CC[C@H]3[C@@H]1CC[C@@]2(O)C(F)(F)C(F)(F)F` [Compound 1, (11β,17β)-17-Hydroxy-11-[4-(methylsulphonyl)phenyl]-17-(pentafluoroethyl)estra-4,9-dien-3-one], for which the “Fibroid size during treatment” value (0.5-4 mg once daily, 12 weeks, MRI and TVU) is recorded as “dose-dependent reduction in fibroid size”. The “Effect on fibroid size during follow-up” value (follow-up after 12 weeks treatment) is reported as “partially sustained during follow-up”.
